From patent US12139520B2 (priority 2020, dated 2024)
Numbered stars: 1 amine (or outer) side, 2 acyl side, 3 side chain; on linkers, the order of the positions; unused ones are H or OH. Bridge positions count the residues as written; N and C are the ends. Square brackets hold non-standard residues; d marks the D form. Peptide text beside a SMILES is read from it. * marks the point of attachment. C20 diacid = O=C(O)CCCCCCCCCCCCCCCCCCC(=O)*; γGlu = O=C(O)[C@H](CCC(=O)[*:2])N[*:1]; Hyp = O=C(O)[C@@H]1C[C@@H](O)CN1

Molecular target: T1, hAMY3 receptor (Homo sapiens, UniProt O60896+P30988)
T1 sequence (P30988 25-474): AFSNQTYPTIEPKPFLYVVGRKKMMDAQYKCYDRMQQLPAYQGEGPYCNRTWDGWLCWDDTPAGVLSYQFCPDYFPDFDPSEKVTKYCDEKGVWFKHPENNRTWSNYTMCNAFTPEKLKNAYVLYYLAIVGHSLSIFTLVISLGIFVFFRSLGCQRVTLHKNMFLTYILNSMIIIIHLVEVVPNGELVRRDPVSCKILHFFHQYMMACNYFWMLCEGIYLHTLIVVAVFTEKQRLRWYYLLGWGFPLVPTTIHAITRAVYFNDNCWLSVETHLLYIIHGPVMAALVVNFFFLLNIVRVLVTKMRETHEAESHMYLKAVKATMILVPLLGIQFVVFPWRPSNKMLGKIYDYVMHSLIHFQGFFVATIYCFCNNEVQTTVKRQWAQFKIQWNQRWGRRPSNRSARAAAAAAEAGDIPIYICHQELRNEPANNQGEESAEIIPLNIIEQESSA
T1 sequence (O60896 24-148 partner): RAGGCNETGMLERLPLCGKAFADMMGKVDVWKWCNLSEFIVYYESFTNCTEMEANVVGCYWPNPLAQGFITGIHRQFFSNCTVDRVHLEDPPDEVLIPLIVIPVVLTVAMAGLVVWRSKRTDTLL
Experiment: cAMP assay for in vitro receptor activation, hAMY3-R
Type: cell-based
Settings: cAMP assay, hAMY3 receptor; read-out: hAMY3R EC50
Outline: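 Monoclonal cell line stably overexpressing hAMY3 receptor, plated in DPBS with 0.05% casein and 0.5 mM IBMX, was stimulated with graded compound doses for 30 min at room temperature. cAMP accumulation was read by time-resolved FRET one hour after adding detection reagents.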

| EC50 [nM] | SMILES |
| --- | --- |
| 0.02 | CC[C@H](C)[C@H](NC(=O)[C@H](CCC(N)=O)NC(=O)[C@H](CC(N)=O)NC(=O)[C@H](C)NC(=O)[C@H](CC(C)C)NC(=O)[C@H](CCCNC(=N)N)NC(=O)[C@H](CCC(N)=O)NC(=O)[C@@H](NC(=O)[C@@H](NC(=O)[C@@H]1CSSC[C@H](NC(=O)CNC(=O)CC[C@H](NC(=O)CCCCCCCCCCCCCCCCCCC(=O)O)C(=O)O)C(=O)N[C@@H](CCCNC(=N)N)C(=O)N[C@@H](Cc2ccccc2)C(=O)NCC(=O)N[C@@H]([C@@H](C)O)C(=O)N1)[C@@H](C)O)C(C)C)C(=O)N[C@@H](Cc1ccc(O)cc1)C(=O)N[C@@H](CCC(N)=O)C(=O)N[C@@H](Cc1ccccc1)C(=O)N[C@H](C(=O)N[C@@H](CC(=O)O)C(=O)N[C@@H](CCCCN)C(=O)N[C@@H](CC(=O)O)C(=O)N[C@@H](CCCCN)C(=O)N[C@@H](CC(=O)O)C(=O)N[C@@H](CC(N)=O)C(=O)N[C@H](C(=O)N[C@@H](C)C(=O)N1CCC[C@H]1C(=O)N[C@@H](CCCNC(=N)N)C(=O)N[C@H](C(=O)N[C@@H](CC(N)=O)C(=O)N[C@H](C(=O)NCC(=O)N1CCC[C@H]1C(=O)N[C@@H](CCC(N)=O)C(=O)NCC(=O)N[C@@H](Cc1ccc(O)cc1)C(N)=O)C(C)C)[C@@H](C)O)C(C)C)[C@@H](C)O [compound 372] ({C20 diacid-γGlu}-GCRFGTCTVQRLANQIYQFTDKDKDNVAPRTNVGPQGY-NH2; disulfide 2-7) |
| 0.048 | CC[C@H](C)[C@H](NC(=O)[C@H](CCCCN)NC(=O)[C@@H](NC(=O)[C@H](CCCNC(=N)N)NC(=O)[C@@H]1CCCN1C(=O)[C@H](C)NC(=O)[C@@H](NC(=O)[C@H](CC(N)=O)NC(=O)[C@H](CC(=O)O)NC(=O)[C@H](CCCCN)NC(=O)[C@H](CC(=O)O)NC(=O)[C@H](CCCCN)NC(=O)[C@H](CC(=O)O)NC(=O)[C@@H](NC(=O)[C@H](Cc1ccccc1)NC(=O)[C@H](CCC(N)=O)NC(=O)[C@H](Cc1ccc(O)cc1)NC(=O)[C@H](CC(C)C)NC(=O)[C@H](Cc1ccccc1)NC(=O)[C@H](Cc1c[nH]cn1)NC(=O)[C@H](C)NC(=O)[C@H](CC(C)C)NC(=O)[C@H](CCCNC(=N)N)NC(=O)[C@H](CCC(N)=O)NC(=O)[C@@H](NC(=O)[C@@H](NC(=O)[C@@H]1CSSC[C@H](NC(=O)CNC(=O)CC[C@H](NC(=O)CCCCCCCCCCCCCCCCCCC(=O)O)C(=O)O)C(=O)N[C@@H](CCCNC(=N)N)C(=O)N[C@@H](Cc2ccccc2)C(=O)NCC(=O)N[C@@H]([C@@H](C)O)C(=O)N1)[C@@H](C)O)C(C)C)[C@@H](C)O)C(C)C)[C@@H](C)O)C(=O)NCC(=O)N1CCC[C@H]1C(=O)N[C@@H](CCC(N)=O)C(=O)NCC(=O)N[C@@H](Cc1ccc(O)cc1)C(N)=O [compound 390] ({C20 diacid-γGlu}-GCRFGTCTVQRLAHFLYQFTDKDKDNVAPRTKIGPQGY-NH2; disulfide 2-7) |

The remaining lines, values behind:

| SMILES | EC50 [nM] |
| --- | --- |
| CC[C@H](C)[C@H](NC(=O)[C@H](CCC(N)=O)NC(=O)[C@H](Cc1c[nH]cn1)NC(=O)[C@H](C)NC(=O)[C@H](CC(C)C)NC(=O)[C@H](CCCNC(=N)N)NC(=O)[C@H](CCC(N)=O)NC(=O)[C@@H](NC(=O)[C@@H](NC(=O)[C@@H]1CSSC[C@H](NC(=O)[C@H](CCCCN)NC(=O)CC[C@H](NC(=O)CCCCCCCCCCCCCCCCCCC(=O)O)C(=O)O)C(=O)N[C@@H](CC(N)=O)C(=O)N[C@@H]([C@@H](C)O)C(=O)N[C@@H](C)C(=O)N[C@@H]([C@@H](C)O)C(=O)N1)[C@@H](C)O)C(C)C)C(=O)N[C@@H](C)C(=O)N[C@@H](CCC(N)=O)C(=O)N[C@@H](Cc1ccccc1)C(=O)N[C@H](C(=O)N[C@@H](CC(=O)O)C(=O)N[C@@H](CCCCN)C(=O)N[C@@H](CC(=O)O)C(=O)N[C@@H](CCCCN)C(=O)N[C@@H](CC(=O)O)C(=O)N1CCC[C@H]1C(=O)N[C@H](C(=O)N[C@@H](C)C(=O)N1CCC[C@H]1C(=O)N1CCC[C@H]1C(=O)N[C@H](C(=O)N[C@@H](CC(N)=O)C(=O)N[C@H](C(=O)NCC(=O)N[C@@H](CO)C(=O)N[C@@H](CC(N)=O)C(=O)NCC(=O)N1C[C@H](O)C[C@H]1C(N)=O)C(C)C)[C@@H](C)O)C(C)C)[C@@H](C)O [compound 92] ({C20 diacid-γGlu}-KCNTATCTVQRLAHQIAQFTDKDKDPVAPPTNVGSNG[Hyp]-NH2; disulfide 2-7) | 0.016 |
| CC(C)C[C@H](NC(=O)[C@H](CCCNC(=N)N)NC(=O)[C@H](CCC(N)=O)NC(=O)[C@@H](NC(=O)[C@@H](NC(=O)[C@@H]1CSSC[C@H](NC(=O)CN)C(=O)N[C@@H](CCCNC(=N)N)C(=O)N[C@@H](Cc2ccccc2)C(=O)NCC(=O)N[C@@H]([C@@H](C)O)C(=O)N1)[C@@H](C)O)C(C)C)C(=O)N[C@@H](C)C(=O)N[C@@H](Cc1c[nH]cn1)C(=O)N[C@@H](Cc1ccccc1)C(=O)N[C@@H](CC(C)C)C(=O)N[C@@H](Cc1ccc(O)cc1)C(=O)N[C@@H](CCC(N)=O)C(=O)N[C@@H](Cc1ccccc1)C(=O)N[C@H](C(=O)N[C@@H](CC(=O)O)C(=O)N[C@@H](CCCCN)C(=O)N[C@@H](CC(=O)O)C(=O)N[C@@H](CCCCN)C(=O)N[C@@H](CC(=O)O)C(=O)N[C@@H](CC(N)=O)C(=O)N[C@H](C(=O)N[C@@H](C)C(=O)N1CCC[C@H]1C(=O)N[C@@H](CCCNC(=N)N)C(=O)N[C@H](C(=O)N[C@@H](CC(N)=O)C(=O)N[C@H](C(=O)NCC(=O)N1CCC[C@H]1C(=O)N[C@@H](CCC(N)=O)C(=O)NCC(=O)N[C@@H](Cc1ccc(O)cc1)C(N)=O)C(C)C)[C@@H](C)O)C(C)C)[C@@H](C)O [compound 54] (H-GCRFGTCTVQRLAHFLYQFTDKDKDNVAPRTNVGPQGY-NH2; disulfide 2-7; N-terminus assumed) | 0.012 |
| CC[C@H](C)[C@H](NC(=O)[C@H](CCC(N)=O)NC(=O)[C@H](Cc1c[nH]cn1)NC(=O)[C@H](C)NC(=O)[C@H](CC(C)C)NC(=O)[C@H](CCCNC(=N)N)NC(=O)[C@H](CCC(N)=O)NC(=O)[C@@H](NC(=O)[C@@H](NC(=O)[C@@H]1CSSC[C@H](NC(=O)[C@@H](N)CCCCN)C(=O)N[C@@H](CC(N)=O)C(=O)N[C@@H](Cc2ccccc2)C(=O)N[C@@H](C)C(=O)N[C@@H]([C@@H](C)O)C(=O)N1)[C@@H](C)O)C(C)C)C(=O)N[C@@H](Cc1ccc(O)cc1)C(=O)N[C@@H](CCC(N)=O)C(=O)N[C@@H](Cc1ccccc1)C(=O)N[C@H](C(=O)N[C@@H](CC(=O)O)C(=O)N[C@@H](CCCCN)C(=O)N[C@@H](CC(=O)O)C(=O)N[C@@H](CCCCN)C(=O)N[C@@H](CC(=O)O)C(=O)N[C@@H](CC(N)=O)C(=O)N[C@H](C(=O)N[C@@H](C)C(=O)N1CCC[C@H]1C(=O)N1CCC[C@H]1C(=O)N[C@H](C(=O)N[C@@H](CCC(=O)O)C(=O)N[C@H](C(=O)NCC(=O)N[C@@H](CO)C(=O)N[C@@H](CC(N)=O)C(=O)NCC(=O)N1C[C@H](O)C[C@H]1C(N)=O)C(C)C)[C@@H](C)O)C(C)C)[C@@H](C)O [compound 10] (H-KCNFATCTVQRLAHQIYQFTDKDKDNVAPPTEVGSNG[Hyp]-NH2; disulfide 2-7; N-terminus assumed) | 0.007 |
| CC(C)C[C@H](NC(=O)[C@H](CCCNC(=N)N)NC(=O)[C@H](CCC(N)=O)NC(=O)[C@@H](NC(=O)[C@@H](NC(=O)[C@@H]1CSSC[C@H](NC(=O)CN)C(=O)N[C@@H](CCCNC(=N)N)C(=O)N[C@@H](Cc2ccccc2)C(=O)NCC(=O)N[C@@H]([C@@H](C)O)C(=O)N1)[C@@H](C)O)C(C)C)C(=O)N[C@@H](C)C(=O)N[C@@H](Cc1c[nH]cn1)C(=O)N[C@@H](Cc1ccccc1)C(=O)N[C@@H](CC(C)C)C(=O)N[C@@H](Cc1ccc(O)cc1)C(=O)N[C@@H](CCC(N)=O)C(=O)N[C@@H](Cc1ccccc1)C(=O)N[C@H](C(=O)N[C@@H](CC(=O)O)C(=O)N[C@@H](CCCCN)C(=O)N[C@@H](CC(=O)O)C(=O)N[C@@H](CCCCN)C(=O)N[C@@H](CC(=O)O)C(=O)N[C@@H](CC(N)=O)C(=O)N[C@H](C(=O)N[C@@H](C)C(=O)N1CCC[C@H]1C(=O)N[C@@H](CCCNC(=N)N)C(=O)N[C@H](C(=O)N[C@@H](CCCCN)C(=O)N[C@H](C(=O)NCC(=O)N[C@@H](CO)C(=O)N[C@@H](CC(N)=O)C(=O)NCC(=O)N[C@@H](Cc1ccc(O)cc1)C(N)=O)C(C)C)[C@@H](C)O)C(C)C)[C@@H](C)O [compound 117] (H-GCRFGTCTVQRLAHFLYQFTDKDKDNVAPRTKVGSNGY-NH2; disulfide 2-7; N-terminus assumed) | 0.024 |
| CC(C)C[C@H](NC(=O)[C@H](CCCNC(=N)N)NC(=O)[C@H](CCC(N)=O)NC(=O)[C@@H](NC(=O)[C@@H](NC(=O)[C@@H]1CSSC[C@H](NC(=O)CN)C(=O)N[C@@H](CCCNC(=N)N)C(=O)N[C@@H](Cc2ccccc2)C(=O)NCC(=O)N[C@@H]([C@@H](C)O)C(=O)N1)[C@@H](C)O)C(C)C)C(=O)N[C@@H](C)C(=O)N[C@@H](CC(N)=O)C(=O)N[C@@H](Cc1ccccc1)C(=O)N[C@@H](CC(C)C)C(=O)N[C@@H](Cc1ccc(O)cc1)C(=O)N[C@@H](CCC(N)=O)C(=O)N[C@@H](Cc1ccccc1)C(=O)N[C@H](C(=O)N[C@@H](CC(=O)O)C(=O)N[C@@H](CCCCN)C(=O)N[C@@H](CC(=O)O)C(=O)N[C@@H](CCCCN)C(=O)N[C@@H](CC(=O)O)C(=O)N[C@@H](CC(N)=O)C(=O)N[C@H](C(=O)N[C@@H](C)C(=O)N1CCC[C@H]1C(=O)N[C@@H](CCCNC(=N)N)C(=O)N[C@H](C(=O)N[C@@H](CC(N)=O)C(=O)N[C@H](C(=O)NCC(=O)N1CCC[C@H]1C(=O)N[C@@H](CCC(N)=O)C(=O)NCC(=O)N[C@@H](Cc1ccc(O)cc1)C(N)=O)C(C)C)[C@@H](C)O)C(C)C)[C@@H](C)O [compound 16] (H-GCRFGTCTVQRLANFLYQFTDKDKDNVAPRTNVGPQGY-NH2; disulfide 2-7) | 0.008 |
